Where no end group is shown, it is not given here.

The subject of data set [1] is photoreceptor function, rd10/Serpinf1 null mice. Briefly: Electroretinography (ERG), rd10/Serpinf1 null mice. The data set is classed as in vivo, mouse. The note with it: P21, daily eyedrops P15-P20. The method, then: (§1) At end point, eyes were enucleated and cross section of retinas from the treated animals were obtained. […] Third, electroretinography was performed in untreated and eyes treated with the 17mer[H105A] peptide eyedrops. Following an intense brief flash of light from darkness, the negative-going a-wave is generated by rod photocurrents and the positive-going b-wave by depolarizing bipolar-cell currents in combination with bipolar cell-dependent K^+ currents affecting Müller cells. […] Scotopic b wave was also measured for both rd10 and rd10/SerpinF1 null mice (FIG. 10C). The data from these different assays corroborate the PSVue® data and illustrate the efficacy of eyedrops of the 17mer[H105A] peptide for protecting the photoreceptors against malformation, death, and misfunction in vivo.

In data set [2] the test system is photoreceptor function, rd10 mice. Briefly: Electroretinography (ERG), rd10 mice. Type of data set: in vivo, mouse. On the procedure:
as §1
At end point, eyes were enucleated and cross section of retinas from the treated animals were obtained. […] Electroretinography was also performed in untreated and eyes of rd10 mice treated with the […] eyedrops. […] The work was done with 3 animals, which may not give statistical significance.

Data set [3] can be described thus: Penetration or bioavailability of labeled peptide in retina after eyedrop (fluorometry of retinal extract). Type of data set: in vivo, mouse (C57/B16J). The conditions noted are these: eyedrops; P21 mice; measured with the Alexa488-labeled peptide. On the procedure: To detect labeled peptide in vitro, the labeled Alexa488-17-mer[H105A] peptide was diluted in HBSS at the indicated concentrations (X-axis). A total of 30 μl of each was added to a well in 96-well plate in triplicates. RIPA buffer was added to one dissected mouse retina at 80 μl/retina. The suspension was sonicated for 30 sec at 4 °C followed by centrifugation at 4 °C. 10 min at […] (Eppendorf centrifuge) to separate the soluble retinal extract from the particulate material. The labeled peptide was diluted in retinal extract. A total of 30 μl of each was added to a well in 96-well plate. HBSS (FIG. 18A) or retinal extract (FIG. 18B) were used as a control at zero and different concentrations of 17mer[H105A]-488 as indicated in the x-axis. Fluorescence was determined using a fluorometer [BMG LabTech POLARstar OPTIMA] using wavelength at [Excitation 485-P, Emission 520-P]. Plots were obtained using GraphPad and non-linear fit were analyzed.
At 1, 3, 6 and 24 hours after administration, retinas were dissected, their proteins were extracted with RIPA (80 μl/retina) and clarified by sonication and centrifugation. A total of 30 μl of extracts were used to determine the fluorescence of the peptide with a fluorometer (FIG. 19).

Setting [4] is: P25, eyedrops every other day P15-P24.

Consider QRTESIIARALYYDLIS [17mer[H105A]], for which the “ERG amplitude of the a-wave” value in data set [1] is “improvement”; in data set [2] (P21, daily eyedrops P15-P20) it was “improvement”; in data set [2] (setting [4]), “improvement”. Moreover, in data set [2] (setting [4]), the “ERG amplitude of the b-wave” value is on record as “improvement”. The “statistical difference in b-wave between treated and untreated” value in data set [2] (P25, eyedrops every other day, 3 animals) is “no statistically significant difference”. Also, the “time after eyedrop at which the peptide reached the retina” value in data set [3] lay within 1 to 24 h.
